Patent publication US20090117074A1, “Sulfonylpyrroles as Histone Deacetylase Inhibitors” (NYCOMED GmbH, priority 2005, published 2009)
Where a name gives a salt, the structure may show the parent alone.

Experiments:
[1] = test system: A549 NSCLC cell line; assay: Cellular cytotoxicity assay (Alamar Blue), A549; assay type: cell-based; details: Homo sapiens, 48 or 72 hours, read-out: IC50, anti-proliferative/cytotoxic activity
Procedure: (§1) The anti-proliferative activity of the histone deacetylase inhibitory compounds as described herein, Is evaluated with the HeLa cervical carcinoma cell line (ATCC CCL2) and A549 non-small cell lung cancer cell line (ATCC CCL185) using the Alamar Blue (Resazurin) cell viability assay (O'Brien et al. Eur J Biochem 267, 5421-5426, 2000). Resazurin is reduced to the fluorescent resorufin by cellular dehydrogenase activity, correlating with viable, proliferating cells. Test compounds are dissolved as 20 mM solutions in dimethylsulfoxide (DMSO) and subsequently diluted in semi-logarithmic steps. HeLa or A549 cells are seeded into 96 well flat bottom plates at a density of 1000 and 2000 cells per well, respectively, in a volume of 200 μl per well. 24 hours after seeding 1 μl each of the compound dilutions are added into each well of the 96 Well plate. Each compound dilution is tested as quadruplicates.
(§2) Wells containing untreated control cells are filled with 200 μl DMEM medium containing 0.5% v:v DMSO. The cells are then incubated with the substances for 48 or 72 hours at 37° C. in a humidified atmosphere containing 5% carbon dioxide. To determine the viability of the cells, 20 μl of an Resazurin solution (Sigma; 90 mg/I) were added. After 4 hours incubation at 37° C. the fluorescence is measured at an extinction of 544 nm and an emission of 590 nm. For the calculation of the cell viability the emission value from untreated cells is set as 100% viability and the emission rates of treated cells are set in relation to the values of untreated cells. Viabilities are expressed as % values. The corresponding IC50 values of the compounds for cytotoxic activity are determined from the concentration-effect curves by means of non-linear regression.

[2] = test system: HeLa cervical carcinoma cell line; assay: Cellular cytotoxicity assay (Alamar Blue), HeLa; assay type: cell-based; details: Homo sapiens, 48 or 72 hours, read-out: IC50, anti-proliferative/cytotoxic activity
Procedure: as §1, §2

[3] = test system: histone H3 hyperacetylation in HeLa cells; assay: Cellular histone H3 hyperacetylation assay; assay type: cell-based; details: Homo sapiens, 24 h incubation
Text: To assess the cellular efficacy of a histone deacetylase inhibitor in vitro, an assay is set up in black clear-bottom 96-well plates and optimized for use on the Cellomics “ArrayScan II” platform for a quantitative calculation of histone acetylation. The protocol uses a polyclonal rabbit antibody, specifically binding to acetylated lysine 23 or, alternatively, acetylated lysine 9+14 of human histone H3 on fixed cells with an Alexa Fluor 488 labeled goat anti rabbit-IgG used for counterstaining (modified from Braunger et al. AACR annual conference 2003, Abstract 4556).
5×10^3 HeLa cervical carcinoma cells/well (ATCC CCL-2) in 200 μl Dulbecco's modified Eagle's medium (DMEM) containing 10% fetal calf serum are seeded at day 1 in Packard view plates and incubated for 24 h under standard cell culture conditions. On day 2, 1 μl test compound (200× final concentration) is added and incubation continued for further 24 h. On day 3, the culture medium is discarded and attached cells fixed for 15 min at room temperature by addition of 100 μl fixation buffer (3.7% v:v formaldehyde in phosphate buffered saline/PBS). After discarding the fixation buffer and one wash with blocking solution (1% BSA, 0.3% Tween 20 in PBS), cells are permeabilized at room temperature by addition of 100 μl/well permeabilization buffer (30.8 mM NaCl, 0.54 mM Na2HPO4, 0.31 mM KH2PO4, 0.1% v:v Triton X-100) for 15 min at room temperature. After discarding the permeabilization buffer and washing twice with 100 μl/well blocking solution at room temperature, the 1st antibody (anti-K23 histone H3 antibody, Cell Signaling No. 9674 or, alternatively, anti-K9+14 histone H3 antibody, Calbiochem No. 382158) in blocking solution (50 μl/well) is added. After incubation for 1 h at room temperature, the wells are washed twice at room temperature with 100 μl/well blocking solution before addition of the 2nd antibody (goat-anti-rabbit Alexa Fluor 488; MoBiTec No. A-11008) in blocking solution (50 μl/well). After further incubation for 1 h at room temperature, wells are washed twice with 100 μl/well blocking solution at room temperature. Finally, 100 μl/well PBS are added and image analysis performed on the Cellomics “ArrayScan II” platform. For EC50 determination, the percentage of positive cells showing nuclear fluorescence is determined and EC50 calculation done from concentration-effect curves by means of non-linear regression. For calibration, a positive (reference HDAC inhibitors like SAHA or LBH589) and negative control is included.

[4] = test system: A549 cells; assay: Apoptosis induction (cell death detection ELISA); assay type: cell-based, human; details: 10 μM, 48 hours
Procedure: The induction of apoptosis is measured by using the cell death detection ELISA (Art. No. 1774425, Roche Biochemicals, Mannheim, Germany). A549 NSCLC cells are seeded into 96 well flat bottom plates at a density of 3×10 E3 cells/well in a total volume of 200 μl/well. 24 hours after seeding, 1 μl each of the compound dilutions in DMEM are added in a total volume of 200 μl into each well (final volume 200 μl/well). Each compound dilution is tested at least as triplicates. Wells containing untreated control cells are filled with 200 μl DMEM containing 0.5 vol % DMSO. The cells are incubated with test compound for 48 hours at 37° C. in a humidified atmosphere containing 5% carbon dioxide. As a positive control for the induction of apoptosis, cells are treated with 50 μM Cisplatin (Gry Pharmaceuticals, Kirchzarten, Germany). Medium is then removed and the cells lysed in 200 μl lysis buffer. After centrifugation as described by the manufacturer, 10 μl of cell lysate is processed as described in the protocol. The degree of apoptosis is calculated as follows: The absorbance at 405 nm obtained with lysates from cells treated with 50 μM cisplatin is set as 100 cpu (cisplatin units), while an absorbance at 405 nm of 0.0 is set as 0.0 cpu. The degree of apoptosis is expressed as cpu in relation to the value of 100 cpu reached with the lysates obtained from cells treated with 50 μM cisplatin.

Row | EC50 [3] | melting point | SMILES | IC50 [1] | IC50 [2] | Apoptosis induction (cisplatin units; 50 μM cisplatin = 100 cpu) [4]
1 | – | – | Cc1nc(C)c(S(=O)(=O)n2ccc(C=CC(=O)NO)c2)s1 [Example 11, (E)-3-[1-(2, Dimethyl-thiazole-5-sulfonyl)-1H-pyrrol-3-yl]-N-hydroxy-acrylamide] | 0.313 to 6.2 µM | 230 to 4200 nM | –
2 | 0.19 to 10 µM | – | O=C(/C=C/c1ccn(S(=O)(=O)c2cc3ccccc3s2)c1)NO [Example 9, (E)-3-[1-(Benzo[b]thiophene-2-sulfonyl)-1H-pyrrol-3-yl]-N-hydroxy-acrylamide] | 0.313 to 6.2 µM | 230 to 4200 nM | –
3 | – | 161.4 to 176.4 °C | O=C(/C=C/c1ccn(S(=O)(=O)c2cccnc2)c1)NO [Example 3, (E)-N-Hydroxy-3-[1-(pyridine-3-sulfonyl)-1H-pyrrol-3-yl]-acrylamide] | 0.313 to 6.2 µM | 230 to 4200 nM | –
4 | – | 190 to 194 °C | Cc1nc(S(=O)(=O)n2ccc(/C=C/C(=O)NO)c2)cn1C [Example 12, (E)-3-[1-(1,2-Dimethyl-1H-imidazole-4-sulfonyl)-1H-pyrrol-3-yl]-N-hydroxy-acrylamide] | – | – | –
5 | – | – | Cn1cc(S(=O)(=O)n2ccc(/C=C/C(=O)NO)c2)cn1 [Example 8, (E)-N-Hydroxy-3-[1-(1-methyl-1H-pyrazole-4-sulfonyl)-1H-pyrrol-3-yl]-acrylamide] | 0.313 to 6.2 µM | 230 to 4200 nM | –
6 | 0.19 to 10 µM | – | O=C(/C=C/c1ccn(S(=O)(=O)c2ccc(N3CCOCC3)nc2)c1)NO [Example 4, (E)-N-Hydroxy-3-[1-(6-morpholin-4-yl-pyridine-3-sulfonyl)-1H-pyrrol-3-yl]-acrylamide] | 0.313 to 6.2 µM | 230 to 4200 nM | –
7 | 0.19 to 10 µM | – | O=C(/C=C/c1ccn(S(=O)(=O)c2ccc3ccccc3c2)c1)NO [Example 1, (E)-N-Hydroxy-3-[1-(naphthalene-2-sulfonyl)-1H-pyrrol-3-yl]-acrylamide] | 0.313 to 6.2 µM | 230 to 4200 nM | 310 cpu
8 | 0.19 to 10 µM | – | Nc1ccccc1NC(=O)/C=C/c1ccn(S(=O)(=O)c2ccc3ccccc3c2)c1 [Example 2, (E)-N-(2-Amino-phenyl)-3-[1-(naphthalene-2-sulfonyl)-1H-pyrrol-3-yl]-acrylamide] | 0.313 to 6.2 µM | 230 to 4200 nM | 46 cpu
9 | – | 181 to 182 °C | Cc1nc(C)c(S(=O)(=O)n2ccc(C=CC(=O)NO)c2)s1 (as salt: HCl) [Example 11, (E)-3-[1-(2, Dimethyl-thiazole-5-sulfonyl)-1H-pyrrol-3-yl]-N-hydroxy-acrylamide] | – | – | –
10 | 0.19 to 10 µM | – | O=C(/C=C/c1ccn(S(=O)(=O)c2ccc3ncsc3c2)c1)NO [Example 10, (E)-3-[1-(Benzothiazole-6-sulfonyl)-1H-pyrrol-3-yl]-N-hydroxy-acrylamide] | 0.313 to 6.2 µM | 230 to 4200 nM | –
